The record followed here is BindingDB's records for doi:10.1016/j.bmc.2015.01.026 (Virginia Tech, 2015).

Usually kon stands for the rate constant with which the complex forms.

The target of this assay is Acetylcholinesterase (Homo sapiens, UniProt P22303). The experiment in a line: Inhibition of recombinant human AChE. The conditions noted are these: read-out: kon (M-1-s-1).
Chain of Acetylcholinesterase (P22303 whole entry): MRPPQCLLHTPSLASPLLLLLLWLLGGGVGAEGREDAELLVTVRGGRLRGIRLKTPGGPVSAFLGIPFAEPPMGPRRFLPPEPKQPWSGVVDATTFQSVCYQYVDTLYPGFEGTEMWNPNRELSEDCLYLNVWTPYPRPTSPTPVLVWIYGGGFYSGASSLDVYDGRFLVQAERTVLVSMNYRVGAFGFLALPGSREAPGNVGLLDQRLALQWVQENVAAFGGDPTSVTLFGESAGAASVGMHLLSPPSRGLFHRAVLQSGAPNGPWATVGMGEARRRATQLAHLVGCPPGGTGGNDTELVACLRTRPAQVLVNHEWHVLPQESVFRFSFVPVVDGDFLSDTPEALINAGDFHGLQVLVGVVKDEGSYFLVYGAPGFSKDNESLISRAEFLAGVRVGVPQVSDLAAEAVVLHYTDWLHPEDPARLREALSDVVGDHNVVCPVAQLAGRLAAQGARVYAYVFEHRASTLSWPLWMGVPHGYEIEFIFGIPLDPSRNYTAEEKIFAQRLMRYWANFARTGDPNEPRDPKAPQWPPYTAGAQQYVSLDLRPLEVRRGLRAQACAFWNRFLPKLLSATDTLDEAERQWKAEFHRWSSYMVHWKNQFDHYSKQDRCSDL
With `CCCC(C)c1cc(=O)n(C(=O)N2CCOCC2)o1` (stereo not drawn), the kon is 433 M⁻¹ s⁻¹.
Next, `CN(C)C(=O)n1oc(CCC2CCC2)cc1=O`: 1240 M⁻¹ s⁻¹; `CC(C)CCc1cc(=O)n(C(=O)N(C)C)o1`: 1350 M⁻¹ s⁻¹; `CCCC(C)c1cc(=O)n(C(=O)N2CCC2)o1` (stereo not drawn): 31000 M⁻¹ s⁻¹.
The result for `CNC(=O)Oc1cccc(C(C)(C)C)c1` reads 2100 M⁻¹ s⁻¹.
Turning to `CC(C)c1cc(OC(=O)N(C)C)no1`, the kon worked out at 74.3 M⁻¹ s⁻¹.
The result for `CC(C)Cc1cc(OC(=O)N(C)C)no1` reads 26.5 M⁻¹ s⁻¹; that for `CCCC(C)c1cc(OC(=O)N(C)CC)no1` (stereo not drawn), 152 M⁻¹ s⁻¹.
On to `CC(C)Cc1cc(=O)n(C(=O)N(C)C)o1`, for which the on-rate (kon) is 515 M⁻¹ s⁻¹.
Turning to `Cc1cc(OC(=O)N(C)C)no1`, the on-rate constant (kon) was 1.97 M⁻¹ s⁻¹.
Take `CCC(C)Cc1cc(OC(=O)N(C)C)no1` (stereo not drawn): the on-rate constant (kon) was found to be 28.3 M⁻¹ s⁻¹.
Turning to `CN(C)C(=O)n1oc(C2CC2)cc1=O`, the on-rate constant (kon) was 1720 M⁻¹ s⁻¹.
Next, `CCC(CC)c1cc(OC(=O)N(C)C)no1`: 151 M⁻¹ s⁻¹; `CN(C)C(=O)Oc1cc(CC(C)(C)C)on1`: 7.33 M⁻¹ s⁻¹; `CN(C)C(=O)n1oc(C2CCCC2)cc1=O`: 11300 M⁻¹ s⁻¹.
Consider `CCCC(C)c1cc(=O)n(C(=O)N(C)CC)o1` (stereo not drawn), for which the kon is 18000 M⁻¹ s⁻¹.
Turning to `CCC(CC)c1cc(=O)n(C(=O)N(C)C)o1`, the kon worked out at 33200 M⁻¹ s⁻¹.
Regarding `CCCC(C)c1cc(=O)n(C(=O)N2CCCC2)o1` (stereo not drawn), the kon worked out at 6320 M⁻¹ s⁻¹.
In the case of `CCC(C)n1cc(OC(=O)NC)cn1` (stereo not drawn), the kon was 13400 M⁻¹ s⁻¹.
For the compound `CN(C)C(=O)Oc1cc(C2CCC2)on1`, the on-rate (kon) stood at 31 M⁻¹ s⁻¹.
Next, `Cc1cc(=O)n(C(=O)N(C)C)o1`: 20.3 M⁻¹ s⁻¹; `CCC(C)c1cc(OC(=O)N(C)C)no1` (stereo not drawn): 1000 M⁻¹ s⁻¹.
`CN(C)C(=O)Oc1cc(C2CC2)on1`: the kon worked out at 33.7 M⁻¹ s⁻¹.
The result for `CCCC(C)c1cc(=O)n(C(=O)N(CC)CC)o1` (stereo not drawn) reads 3000 M⁻¹ s⁻¹; that for `CCCC(C)c1cc(OC(=O)N(C)C)no1` (stereo not drawn), 848 M⁻¹ s⁻¹; that for `CN(C)C(=O)n1oc(CCC2CC2)cc1=O`, 2400 M⁻¹ s⁻¹.
Next, `CN(C)C(=O)n1oc(CCC2CCCC2)cc1=O`: 1530 M⁻¹ s⁻¹.
Next, `CNC(=O)Oc1cccc2c1OC(C)(C)O2` [CHEBI:34556]: 1850 M⁻¹ s⁻¹; `CN(C)C(=O)Oc1cc(CCC2CC2)on1`: 138 M⁻¹ s⁻¹.
`CCCC(C)c1cc(OC(=O)N2CCOCC2)no1` (stereo not drawn): the kon was found to be 44.7 M⁻¹ s⁻¹.
Regarding `CC(C)CCc1cc(OC(=O)N(C)C)no1`, the on-rate constant (kon) worked out at 31.8 M⁻¹ s⁻¹.
`CCCCC(CC)c1cc(OC(=O)N(C)C)no1` (stereo not drawn): the kon was 35.5 M⁻¹ s⁻¹.
For the compound `CN(C)C(=O)Oc1cc(C2CCCC2)on1`, the association rate constant (kon) stood at 77 M⁻¹ s⁻¹.
Next, `CN(C)C(=O)Oc1cc(CCC2CCCC2)on1`: 218 M⁻¹ s⁻¹; `CNC(=O)Oc1ccccc1OC(C)C` [CHEBI:34938]: 283 M⁻¹ s⁻¹; `CCC(C)c1cc(=O)n(C(=O)N(C)C)o1` (stereo not drawn): 36200 M⁻¹ s⁻¹.
Regarding `CCCC(C)c1cc(=O)n(C(=O)N(C)C)o1` (stereo not drawn), the kon came to 51800 M⁻¹ s⁻¹.
Next, `CN(C)C(=O)Oc1cc(CCC2CCC2)on1`: 121 M⁻¹ s⁻¹; `CC(C)c1cc(=O)n(C(=O)N(C)C)o1`: 9350 M⁻¹ s⁻¹.
Next, `CCC(C)Cc1cc(=O)n(C(=O)N(C)C)o1` (stereo not drawn): 1870 M⁻¹ s⁻¹; `CNC(=O)Oc1cccc2c1OC(C)(C)C2` [CHEBI:34611]: 7130 M⁻¹ s⁻¹.
Next, `CN(C)C(=O)n1oc(C2CCC2)cc1=O`: 3880 M⁻¹ s⁻¹; `CCCC(C)c1cc(OC(=O)N2CCCC2)no1` (stereo not drawn): 27 M⁻¹ s⁻¹.
